Target: Metabotropic glutamate receptor 5 (Homo sapiens, UniProt P41594)
Test: Binding Assay: For binding experiments, cDNA encoding human mGlu 5a receptor was transiently transfected into EBNA cells using a procedure described by Schlaeger and Christensen [Cytotechnology 15:1-13 (1998)]. Cell membrane homogenates were stored at -80° C. until the day of assay where upon they were thawed and resuspended and polytronised in 15 mM Tris-HCl, 120 mM NaCl, 100 mM KCl, 25 mM CaCl2, 25 mM MgCl2 binding buffer at pH 7.4 to a final assay concentration of 20 ug protein/well.Saturation isotherms were determined by addition of twelve [3H]MPEP concentrations (0.04-100 nM) to these membranes (in a total volume of 200 ul) for 1 h at 4° C. Competition experiments were performed with a fixed concentration of [3H]MPEP (2 nM) and IC50 values of test compounds evaluated using 11 concentrations (0.3-10,000 nM). Incubations were performed for 1 h at 4° C.At the end of the incubation, membranes were filtered onto unifilter (96-well white microplate with bonded GF/C filter preincubated 1 h in 0.1% PEI in wash buffer, Packard BioScience, Meriden, Conn.) with a Filtermate 96 harvester (Packard BioScience) and washed 3 times with cold 50 mM Tris-HCl, pH 7.4 buffer. Nonspecific binding was measured in the presence of 10 uM MPEP. […]

Metabotropic glutamate receptor 5, sequence (P41594 whole entry): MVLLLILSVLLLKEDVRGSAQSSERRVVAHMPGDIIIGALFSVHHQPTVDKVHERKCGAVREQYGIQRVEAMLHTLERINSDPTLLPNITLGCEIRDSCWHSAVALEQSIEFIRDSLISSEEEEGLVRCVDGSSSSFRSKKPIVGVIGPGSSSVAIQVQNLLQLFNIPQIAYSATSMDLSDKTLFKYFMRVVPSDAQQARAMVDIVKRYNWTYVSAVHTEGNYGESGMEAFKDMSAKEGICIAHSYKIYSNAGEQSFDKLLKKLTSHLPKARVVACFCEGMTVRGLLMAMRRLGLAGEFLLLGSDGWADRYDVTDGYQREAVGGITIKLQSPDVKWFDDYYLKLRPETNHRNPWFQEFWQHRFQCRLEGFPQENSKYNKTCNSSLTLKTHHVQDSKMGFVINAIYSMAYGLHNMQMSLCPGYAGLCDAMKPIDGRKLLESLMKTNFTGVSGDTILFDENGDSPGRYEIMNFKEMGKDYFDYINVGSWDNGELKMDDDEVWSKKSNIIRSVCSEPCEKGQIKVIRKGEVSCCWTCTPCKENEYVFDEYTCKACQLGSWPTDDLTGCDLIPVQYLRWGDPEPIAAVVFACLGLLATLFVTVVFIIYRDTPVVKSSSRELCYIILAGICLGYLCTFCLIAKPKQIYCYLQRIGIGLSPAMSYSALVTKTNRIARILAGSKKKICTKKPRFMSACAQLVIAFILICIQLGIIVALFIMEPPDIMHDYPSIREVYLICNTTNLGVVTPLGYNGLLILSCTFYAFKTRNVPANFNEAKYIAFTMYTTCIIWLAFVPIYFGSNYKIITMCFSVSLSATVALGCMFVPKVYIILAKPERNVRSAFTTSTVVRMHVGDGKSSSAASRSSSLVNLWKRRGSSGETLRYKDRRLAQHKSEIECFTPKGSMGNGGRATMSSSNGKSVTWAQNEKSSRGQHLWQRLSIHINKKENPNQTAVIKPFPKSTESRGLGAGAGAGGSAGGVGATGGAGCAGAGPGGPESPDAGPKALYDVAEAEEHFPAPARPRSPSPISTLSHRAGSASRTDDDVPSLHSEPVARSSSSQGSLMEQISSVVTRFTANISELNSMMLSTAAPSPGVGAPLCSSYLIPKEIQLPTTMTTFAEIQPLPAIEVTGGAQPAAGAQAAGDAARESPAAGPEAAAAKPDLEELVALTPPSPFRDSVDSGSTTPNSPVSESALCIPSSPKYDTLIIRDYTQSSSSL

Ki: 19 nM
SMILES: O=C(c1ccc(C#Cc2cccc(Cl)c2)cn1)N1CCOCC1

From ChEMBL document CHEMBL3886457, “Ethynyl derivatives” (2016)
